# Data taken from patent US20120101083A1, “S1P1 AGONISTS COMPRISING A BICYCLIC N-CONTAINING RING” (GLAXO GROUP LIMITED, priority 2009, published 2012).
# pEC50: −log10 of the molar value. Structures can show the parent of a compound that is named as a salt.
# Tests used:
# [1] = biological target: T1, S1P1 (PathHunter CHO-K1 EDG1 β-Arrestin cell line) (Homo sapiens, UniProt P21453); assay: S1P-1 β-Arrestin recruitment assay; type: cell-based; details: CHO-K1 EDG1 β-Arrestin cells, chemi-luminescence
# T1 construct: host or cells: PathHunter CHO-K1 EDG1 β-Arrestin cell line
# T1 sequence (P21453 whole entry): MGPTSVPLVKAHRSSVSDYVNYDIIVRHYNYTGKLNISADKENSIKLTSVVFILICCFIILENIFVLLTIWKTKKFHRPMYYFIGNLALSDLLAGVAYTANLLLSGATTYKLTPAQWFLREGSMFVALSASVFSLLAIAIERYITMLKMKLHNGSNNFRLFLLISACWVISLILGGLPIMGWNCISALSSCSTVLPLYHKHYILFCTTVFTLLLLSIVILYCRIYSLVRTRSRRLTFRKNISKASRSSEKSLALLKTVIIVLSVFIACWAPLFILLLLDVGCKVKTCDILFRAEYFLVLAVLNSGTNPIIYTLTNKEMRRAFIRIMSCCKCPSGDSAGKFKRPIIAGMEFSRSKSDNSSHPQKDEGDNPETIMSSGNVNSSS
# T1 sequence (P32121 whole entry partner): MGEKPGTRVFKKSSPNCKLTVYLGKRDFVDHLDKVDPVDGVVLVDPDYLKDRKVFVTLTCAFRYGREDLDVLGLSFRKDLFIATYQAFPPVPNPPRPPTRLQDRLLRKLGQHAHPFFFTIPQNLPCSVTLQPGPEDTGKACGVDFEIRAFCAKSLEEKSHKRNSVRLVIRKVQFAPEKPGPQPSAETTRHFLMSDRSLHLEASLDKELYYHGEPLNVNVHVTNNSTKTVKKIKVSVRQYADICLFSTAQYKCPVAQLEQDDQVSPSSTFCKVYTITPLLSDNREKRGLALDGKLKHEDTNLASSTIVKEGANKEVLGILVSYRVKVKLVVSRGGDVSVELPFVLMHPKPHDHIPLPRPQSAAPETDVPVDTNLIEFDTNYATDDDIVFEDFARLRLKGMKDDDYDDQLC
# Procedure: S1P-1 β-Arrestin Recruitment Assay
# β-Arrestin recruitment assays were carried out using the PathHunter CHO-K1 EDG1
# β-Arrestin cell line (DiscoveRx Corporation) in a chemi-luminescence detection assay. This cell line stably expresses β-Arrestin 2 and S1P1 fused to complementing portions of β-galactosidase (‘EA’ and ‘pro-link’, respectively) which associate upon Arrestin recruitment to form functional β-galactosidase enzyme.
# Cells were grown to 80% confluency in Growth Medium (F12 nutrient HAMS supplemented with 10% heat-inactivated USA FBS, 1% L-glutamax, 800 μg/ml Geneticin and 300 μg/ml Hygromycin). Cells were harvested from the flask using Enzyme Free Cell Dissociation Buffer (Gibco) and washed from flasks with Optimem solution (Gibco). Cells were then centrifuged at 1000 rpm for 2-3 min and resuspended in Assay Buffer (Prepared from Sigma kit H1387 supplemented with 20 ml/L HEPES, 4.7 ml/L NaHCO3, 0.1% pluronic acid F-68 solution, 0.1% BSA and adjusted to pH 7.4 using sodium hydroxide at 1×10^6 cells/ml. Cells were dispensed into assay plates containing compounds (100n1/well of a solution of test compound in 100% DMSO) at 1×10^4 cells/well and incubated at 37° C./5% CO2 for 90 min followed by 15 min at room temperature. 5 μl detection mix (1 part Galacton Star, 5 parts Emerald II, 19 parts Assay Buffer; DiscoveRx) were added per well and the plates incubated at room temperature for 60 min. Luminescence was quantified using a Viewlux plate reader.
# [2] = biological target: T2, S1P1 receptor (S1P1 expressing RH7777 membranes) (Homo sapiens, UniProt P21453); assay: S1P1 GTPγS assay; type: biochemical; details: tested in one of the above S1P1 assays (two GTPγS formats)
# T2 construct: expressed in transfected cells; host or cells: RH7777 cells (membranes)
# T2 sequence (P21453 whole entry): as the sequence (P21453 whole entry) above
# How it was run: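 Membranes from RH7777 cells expressing human S1P1 (1.5 μg/well) precoupled 30 min on ice to WGA SPA beads in 20 mM HEPES pH 7.4, 10 mM MgCl2, 100 mM NaCl, with 10 μM GDP and 90 μg/ml saponin. [35S]-GTPγS 0.5 nM final added with compound; SPA signal read immediately.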
SMILES,pEC50 [1],pEC50 [2]
"Cc1c(-c2noc(-c3ccc(OC(C)C)c(C#N)c3)n2)ccc2c1CCN(CCC(N)=O)C2 [Example 1, 3-[6-(5-{3-Cyano-4-[(1-methylethyl)oxy]phenyl}-1,2,4-oxadiazol-3-yl)-5-methyl-3,4-dihydro-2(1H)-isoquinolinyl]propanamide]",≥ 8.00,≥ 7.00
"Cc1c(-c2noc(-c3ccc(OC(C)C)c(C#N)c3)n2)ccc2c1CCN(CCC(=O)N(C)C)C2 [Example 2, 3-[6-(5-{3-Cyano-4-[(1-methylethyl)oxy]phenyl}-1,2,4-oxadiazol-3-yl)-5-methyl-3,4-dihydro-2(1H)-isoquinolinyl]-N,N-dimethylpropanamide]",≥ 7.00,≥ 7.00
"Cc1c(-c2noc(-c3ccc(OC(C)C)c(C#N)c3)n2)ccc2c1CCN(CC(N)=O)C2 [Example 3, 2-[6-(5-{3-Cyano-4-[(1-methylethyl)oxy]phenyl}-1,2,4-oxadiazol-3-yl)-5-methyl-3,4-dihydro-2(1H)-isoquinolinyl]acetamide]",≥ 8.00,≥ 7.00
"Cc1c(-c2noc(-c3ccc(OC(C)C)c(C#N)c3)n2)ccc2c1CCN(CCCC(N)=O)C2 [Example 4, 4-[6-(5-{3-Cyano-4-[(1-methylethyl)oxy]phenyl}-1,2,4-oxadiazol-3-yl)-5-methyl-3,4-dihydro-2(1H)-isoquinolinyl]butanamide]",≥ 8.00,≥ 7.00
"CNC(=O)CCCN1CCc2c(ccc(-c3noc(-c4ccc(OC(C)C)c(C#N)c4)n3)c2C)C1 [Example 5, 4-[6-(5-{3-Cyano-4-[(1-methylethyl)oxy]phenyl}-1,2,4-oxadiazol-3-yl)-5-methyl-3,4-dihydro-2(1H)-isoquinolinyl]-N-methylbutanamide]",≥ 8.00,≥ 7.00
"Cc1c(-c2noc(-c3ccc(OC(C)C)c(C#N)c3)n2)ccc2c1CCN(CC(O)CO)C2 (stereo not shown) [Example 6, 5-{3-[2-(2,3-Dihydroxypropyl)-5-methyl-1,2,3,4-tetrahydro-6-isoquinolinyl]-1,2,4-oxadiazol-5-yl}-2-[(1-methylethyl)oxy]benzonitrile]",≥ 8.00,≥ 7.00
"Cc1c(-c2noc(-c3ccc(OC(C)C)c(C#N)c3)n2)ccc2c1CCN(CCO)C2 [Example 7, 5-{3-[2-(2-Hydroxyethyl)-5-methyl-1,2,3,4-tetrahydro-6-isoquinolinyl]-1,2,4-oxadiazol-5-yl}-2-[(1-methylethyl)oxy]benzonitrile]",≥ 8.00,≥ 7.00
"Cc1c(-c2noc(-c3ccc(OC(C)C)c(C#N)c3)n2)ccc2c1CCN(CCCO)C2 [Example 8, 5-{3-[2-(3-Hydroxypropyl)-5-methyl-1,2,3,4-tetrahydro-6-isoquinolinyl]-1,2,4-oxadiazol-5-yl}-2-[(1-methylethyl)oxy]benzonitrile]",≥ 8.00,≥ 7.00
"COCCN1CCc2c(ccc(-c3noc(-c4ccc(OC(C)C)c(C#N)c4)n3)c2C)C1 [Example 9, 2-[(1-Methylethyl)oxy]-5-(3-{5-methyl-2-[2-(methyloxy)ethyl]-1,2,3,4-tetrahydro-6-isoquinolinyl}-1,2,4-oxadiazol-5-yl)benzonitrile]",≥ 7.00,≥ 7.00
"Cc1c(-c2nnc(-c3ccc(OC(C)C)c(C#N)c3)s2)ccc2c1CCN(CCC(N)=O)C2 [Example 10, 3-[6-(5-{3-Cyano-4-[(1-methylethyl)oxy]phenyl}-1,3,4-thiadiazol-2-yl)-5-methyl-3,4-dihydro-2(1H)-isoquinolinyl]propanamide]",≥ 8.00,≥ 7.00
"CC(C)Oc1ccc(-c2nc(-c3ccc4c(c3)CCN(CCC(N)=O)CC4)no2)cc1C#N [Example 22, 3-[7-(5-{3-Cyano-4-[(1-methylethyl)oxy]phenyl}-1,2,4-oxadiazol-3-yl)-1,2,4,5-tetrahydro-3H-3-benzazepin-3-yl]propanamide]",≥ 8.00,≥ 7.00
"CNC(=O)CCCN1CCc2ccc(-c3noc(-c4ccc(OC(C)C)c(C#N)c4)n3)cc2CC1 [Example 24, 4-[7-(5-{3-Cyano-4-[(1-methylethyl)oxy]phenyl}-1,2,4-oxadiazol-3-yl)-1,2,4,5-tetrahydro-3H-3-benzazepin-3-yl]-N-methylbutanamide]",≥ 8.00,≥ 7.00
"CC(C)Oc1ccc(-c2nc(-c3ccc4c(c3)CCN(CCCC(N)=O)CC4)no2)cc1C#N [Example 25, 4-[7-(5-{3-Cyano-4-[(1-methylethyl)oxy]phenyl}-1,2,4-oxadiazol-3-yl)-1,2,4,5-tetrahydro-3H-3-benzazepin-3-yl]butanamide]",≥ 8.00,≥ 7.00
"CC(C)Oc1ccc(-c2nc(-c3ccc4c(c3)CCN(CCCC(=O)N(C)C)CC4)no2)cc1C#N [Example 26, 4-[7-(5-{3-Cyano-4-[(1-methylethyl)oxy]phenyl}-1,2,4-oxadiazol-3-yl)-1,2,4,5-tetrahydro-3H-3-benzazepin-3-yl]-N,N-dimethylbutanamide]",≥ 8.00,≥ 7.00
"Cc1c(-c2noc(-c3ccc(OC(C)C)c(C#N)c3)n2)ccc2c1CCN(C(=O)CCN)C2 [Example 39, 5-[3-(2-β-Alanyl-5-methyl-1,2,3,4-tetrahydro-6-isoquinolinyl)-1,2,4-oxadiazol-5-yl]-2-[(1-methylethyl)oxy]benzonitrile hydrochloride]",≥ 8.00,≥ 7.00
"CNCCC(=O)N1CCc2c(ccc(-c3noc(-c4ccc(OC(C)C)c(C#N)c4)n3)c2C)C1 [Example 40, 2-[(1-methylethyl)oxy]-5-{3-[5-methyl-2-(N-methyl-b-alanyl)-1,2,3,4-tetrahydro-6-isoquinolinyl]-1,2,4-oxadiazol-5-yl}benzonitrile hydrochloride]",≥ 8.00,≥ 7.00
"CC(C)Oc1ccc(-c2nc(-c3cccc4c3CCN(C[C@@H](O)CO)C4)no2)cc1C#N [Example 178, 5-(3-{2-[(2R)-2,3-dihydroxypropyl]-1,2,3,4-tetrahydro-5-isoquinolinyl}-1,2,4-oxadiazol-5-yl)-2-[(1-methylethyl)oxy]benzonitrile hydrochloride]",≥ 8.00,
"CC(C)Oc1ccc(-c2nc(-c3cccc4c3CCN(C(CO)CO)C4)no2)cc1C#N [Example 180, 5-(3-{2-[2-hydroxy-1-(hydroxymethyl)ethyl]-1,2,3,4-tetrahydro-5-isoquinolinyl}-1,2,4-oxadiazol-5-yl)-2-[(1-methylethyl)oxy]benzonitrile hydrochloride]",≥ 8.00,
"Cc1c(-c2noc(-c3ccc(OC(C)C)c(Cl)c3)n2)ccc2c1CCN(C(=O)CNC(CO)CO)C2 [Example 190, 2-({2-[6-(5-{3-chloro-4-[(1-methylethyl)oxy]phenyl}-1,2,4-oxadiazol-3-yl)-5-methyl-3,4-dihydro-2(1H)-isoquinolinyl]-2-oxoethyl}amino)-1,3-propanediol hydrochloride]",≥ 7.00,
"N#Cc1cc(-c2nc(-c3ccc4c(c3)CCN(C(=O)CN)CC4)no2)ccc1OCC(F)(F)F [Example 191, 5-[3-(3-glycyl-2,3,4,5-tetrahydro-1H-3-benzazepin-7-yl)-1,2,4-oxadiazol-5-yl]-2-[(2,2,2-trifluoroethyl)oxy]benzonitrile hydrochloride]",≥ 8.00,
"Cc1c(-c2noc(-c3ccc(OC(C)C)c(Cl)c3)n2)ccc2c1CCN(CC(=O)NC[C@H](O)CO)C2 [Example 192, 2-[6-(5-{3-chloro-4-[(1-methylethyl)oxy]phenyl}-1,2,4-oxadiazol-3-yl)-5-methyl-3,4-dihydro-2(1H)-isoquinolinyl]-N-[(2S)-2,3-dihydroxypropyl]acetamide hydrochloride]",≥ 8.00,
"Cc1c(-c2noc(-c3ccc(OC(C)C)c(Cl)c3)n2)ccc2c1CCN(CC(=O)NC(CO)CO)C2 [Example 193, 2-[6-(5-{3-chloro-4-[(1-methylethyl)oxy]phenyl}-1,2,4-oxadiazol-3-yl)-5-methyl-3,4-dihydro-2(1H)-isoquinolinyl]-N-[2-hydroxy-1-(hydroxymethyl)ethyl]acetamide hydrochloride]",≥ 8.00,
"CC(C)Oc1ccc(-c2nnc(-c3ccc4c(c3)CCN(C(=O)CNCCO)CC4)s2)cc1C#N [Example 200, 5-(5-{3-[N-(2-hydroxyethyl)glycyl]-2,3,4,5-tetrahydro-1H-3-benzazepin-7-yl}-1,3,4-thiadiazol-2-yl)-2-[(1-methylethyl)oxy]benzonitrile]",≥ 8.00,
"Cc1c(-c2nnc(-c3ccc(OC(C)C)c(Cl)c3)s2)ccc2c1CCN(C(CO)CO)C2 [Example 203, 2-[6-(5-{3-chloro-4-[(1-methylethyl)oxy]phenyl}-1,3,4-thiadiazol-2-yl)-5-methyl-3,4-dihydro-2(1H)-isoquinolinyl]-1,3-propanediol hydrochloride]",≥ 7.00,
